The conditions of series [1]: accelerated stability studies, at least nine weeks, 37° C.
Protocol: The procedure comprises dissolving the Polysorbate 80 USP in about 60% of the required water (previously degassed to remove dissolved air) at room temperature. […] The pharmaceutical necessities; i.e., mannitol, sodium citrate and sodium metabisulfite were then added together with about 20-25% of the remaining volume of water required. The pH was adjusted to 5.5 by addition of hydrochloric acid (10%) and the balance of water then added. The resulting formulation was made sterile by filtration and stored in amber vials sealed under a nitrogen atmosphere.
The samples are analyzed for activity by a HPLC method using a Chromegabond C-8 column (silica silylated with octyltrichlorosilane, available from E. S. Industries, 8 South Maple Avenue, Marlton, N.J. 08053). The column is 4.6 mm I.D.×30 cm.; the mobile phase is 60% acetonitrile-40% phosphate buffer (0.05 M, pH 6.3) and the flow rate is 2 ml. per minute. Detection is by UV at 210 nm.
Series [2] in a line: Water solubility in micellar solutions of Polysorbate 80 USP. Format: physicochemical. The settings on record: for Solubility: 25° C., pH 5.0, based on 88.8% activity. As to the method: This temperature dependence of water solubilty of active ingredient is overcome by the use of sufficient concentration of amphiphile above the cmc such that the solubility of active ingredient is […] at said lowest temperature. The water solubility of active ingredients increases with increasing concentration above the cmc as is shown below for levonantradol in micellar solutions of Polysorbate 80 USP at pH 5.0 and 25° C.

Series [3] can be described thus: Stability of the active ingredient upon storage (general statement). Format: physicochemical. The settings on record: particularly in solution.

Counter-ions that a name gives are not always drawn.

Consider `CC(=O)Oc1cc(O[C@H](C)CCCc2ccccc2)cc2c1[C@@H]1C[C@H](O)CC[C@H]1[C@H](C)N2` [Levonantradol, [6S-[3S*,6-alpha,6a-alpha,9-alpha,10a-beta]]-5,6,6a,7,8,9,10,10a-octahydro-6-methyl-3-(1-methyl-4-phenylbutoxy)-1,9-phenanthridinediol 1-acetate, hydrochloride], for which the “stability in micellar solutions” value in series [1] was “completely stable”. In series [2] (with decreasing temperature), the water solubility entry is reported as “reduced water solubility with decreasing temperature”. Besides, the stability upon storage entry in series [3] was “subject to decomposition upon storage”.
One may read the Solubility as the concentration that dissolves in the medium under given conditions. `CC(=O)Oc1cc(O[C@H](C)CCCc2ccccc2)cc2c1[C@@H]1C[C@H](O)CC[C@H]1[C@H](C)N2` [Levonantradol.HC1, [6S-[3S*,6-alpha,6a-alpha,9-alpha,10a-beta]]-5,6,6a,7,8,9,10,10a-octahydro-6-methyl-3-(1-methyl-4-phenylbutoxy)-1,9-phenanthridinediol 1-acetate, hydrochloride]: the Solubility in series [2] (0.1% (w/v) Polysorbate 80 USP) amounted to 2.2 µg/mL; in series [2] (0.2% (w/v) Polysorbate 80 USP), 67 µg/mL; in series [2] (0.3% (w/v) Polysorbate 80 USP), 130 µg/mL; in series [2] (0.4% (w/v) Polysorbate 80 USP), 290 µg/mL; in series [2] (0.5% (w/v) Polysorbate 80 USP), 430 µg/mL; in series [2] (0.8% (w/v) Polysorbate 80 USP), 880 µg/mL. Also, the Solubility in series [2] (1.0% (w/v) Polysorbate 80 USP) was 1230 µg/mL; in series [2] (1.5% (w/v) Polysorbate 80 USP), 2040 µg/mL; in series [2] (2.0% (w/v) Polysorbate 80 USP), 2850 µg/mL; in series [2] (2.5% (w/v) Polysorbate 80 USP), 3810 µg/mL; in series [2] (3.0% (w/v) Polysorbate 80 USP), 4440 µg/mL; in series [2] (3.5% (w/v) Polysorbate 80 USP), 5600 µg/mL. The Solubility in series [2] (4.0% (w/v) Polysorbate 80 USP) amounted to 6300 µg/mL; in series [2] (4.5% (w/v) Polysorbate 80 USP), 6990 µg/mL; in series [2] (5.0% (w/v) Polysorbate 80 USP) it was 7550 µg/mL; in series [2] (7.0% (w/v) Polysorbate 80 USP), 11280 µg/mL. Moreover, the water solubility result in series [2] (presence of a relatively low concentration of Polysorbate 80) is “markedly increased”.
On to `CC(=O)Oc1cc(O[C@H](C)CCCc2ccccc2)cc2c1[C@@H]1C[C@H](O)CC[C@H]1[C@H](C)N2C` [N-methyllevonantradol], for which the water solubility result in series [2] (with decreasing temperature) is listed as “reduced water solubility with decreasing temperature”. For the same compound, the stability upon storage result in series [3] is “subject to decomposition upon storage”.

Source of the values: patent US4406888A, “Aqueous micellar solutions of levonantradol and N-methyllevonantradol and lyophilic forms thereof for reconstitution” (Pfizer Inc., priority 1981, dated 1983).
